In publication PMC11249626, “Fluorophore-Labeled Pyrrolones Targeting the Intracellular Allosteric Binding Site of the Chemokine Receptor CCR1” (ACS Pharmacology & Translational Science, 2024):

Experiments:
[1] = target: T1, human chemokine receptor CCR2 (Homo sapiens, UniProt P41597); test: Cellular NanoBiT β-arrestin recruitment assay; assay type: cell-based; conditions: n = 1; read-out: EC50, β-arrestin-2 recruitment, CCR2 activation
T1 construct: expressed in transfected cells; host or cells: HEK293T, transient
T1 sequence (P41597 whole entry): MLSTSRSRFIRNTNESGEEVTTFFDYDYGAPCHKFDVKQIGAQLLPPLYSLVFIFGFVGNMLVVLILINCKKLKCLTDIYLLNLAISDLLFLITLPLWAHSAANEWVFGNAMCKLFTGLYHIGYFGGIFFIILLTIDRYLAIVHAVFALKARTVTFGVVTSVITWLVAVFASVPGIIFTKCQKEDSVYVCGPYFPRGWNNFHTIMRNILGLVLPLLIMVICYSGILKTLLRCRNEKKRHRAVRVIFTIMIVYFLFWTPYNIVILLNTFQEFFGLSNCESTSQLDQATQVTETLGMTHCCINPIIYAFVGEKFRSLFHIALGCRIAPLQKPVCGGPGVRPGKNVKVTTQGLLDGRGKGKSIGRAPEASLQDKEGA
Method: (PerkinElmer, Groningen, NL).
(§1) Cellular NanoBiT β-arrestin recruitment assays: Chemokine-induced β-arrestin-2 recruitment to chemokine receptors CCR1 and CCR2 was monitored using a nanoluciferase complementation -based assay (NanoBiT, Promega). 17-19 5 x 10^6 HEK293T cells were plated in 10 cm dishes and cultured for 24 h before transfection with vectors encoding for the human chemokine receptor CCR1 or CCR2 C-terminally fused with SmBiT and β-arrestin 2 N-terminally fused with LgBiT. 24 h after transfection cells were harvested, distributed into white 96-well plates (5 × 10^4 cells per well) and incubated for 1 h at 37 °C with compound 23 at concentrations ranging from 10 nM to 10 µM. The endogenous chemokine ligand CCL5 (3 nM, for CCR1) or CCL2 (10 nM, for CCR2) was then added, and luminescence generated upon nanoluciferase complementation in the presence of coelenterazine H was measured with a Mithras LB940 luminometer (Berthold Technologies) for 20 min. […]
(§2) Finally, the top 5% of the identified hits were subsequently docked to a homology model of CCR1 (vide infra). After visual examination of the obtained binding modes 24 hit compounds were identified for further investigation .
(§3) Molecular docking: For the docking studies in the course of our virtual screening campaign, the CCR1 protein was […]
(§4) 27, 28 CCR1 structure was optimized using the Quickprep and structure preparation wizard in MOE 24 using CHARMM27 forcefield. The protein was saved in mol2 format and loaded in GOLD.25, 26 The amino acids defining the IABS were listed in a text file to define the docking cavity. 50 GA runs were performed for docking CCR2-RA-[R] (4-[R]) and SN_12 (43), with the generated solutions clustered based on their RMSD with the threshold set to 0.75 Å using the complete linkage method. Docking runs were performed using ChemScore. […]

CCR2 = target: T2, CCR2 (Homo sapiens, UniProt P41597); design: method as in PMID 35838163; conditions: membrane-based setup; cited from earlier work
T2 construct: host or cells: HEK293T, transient
T2 sequence (P41597 1-360 isoform P41597-2): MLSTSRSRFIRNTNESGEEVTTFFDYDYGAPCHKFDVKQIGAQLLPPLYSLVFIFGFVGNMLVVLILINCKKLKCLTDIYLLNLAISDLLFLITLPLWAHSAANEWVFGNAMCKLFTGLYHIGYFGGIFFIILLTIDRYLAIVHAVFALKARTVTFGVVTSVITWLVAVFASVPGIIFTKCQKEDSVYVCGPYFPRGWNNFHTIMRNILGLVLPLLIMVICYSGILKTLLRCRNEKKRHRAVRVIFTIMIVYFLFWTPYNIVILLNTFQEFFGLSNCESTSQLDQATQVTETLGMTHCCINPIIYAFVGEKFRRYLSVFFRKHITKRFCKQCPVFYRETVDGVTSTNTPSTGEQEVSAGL

CCR1 = target: T3, CCR1 (Homo sapiens, UniProt P32246); test: Membrane-based NanoBRET saturation binding assay, CCR1_Nluc membranes from HEK293T cells; design: Promega pNLF1-C (Nluc) #CCR010TN00; host or cells: HEK293T, transient (PEI); conditions: saturation binding of fluorescent ligand, read-out: KD (equilibrium, KD(eq.))
T3 sequence (P32246 1-355): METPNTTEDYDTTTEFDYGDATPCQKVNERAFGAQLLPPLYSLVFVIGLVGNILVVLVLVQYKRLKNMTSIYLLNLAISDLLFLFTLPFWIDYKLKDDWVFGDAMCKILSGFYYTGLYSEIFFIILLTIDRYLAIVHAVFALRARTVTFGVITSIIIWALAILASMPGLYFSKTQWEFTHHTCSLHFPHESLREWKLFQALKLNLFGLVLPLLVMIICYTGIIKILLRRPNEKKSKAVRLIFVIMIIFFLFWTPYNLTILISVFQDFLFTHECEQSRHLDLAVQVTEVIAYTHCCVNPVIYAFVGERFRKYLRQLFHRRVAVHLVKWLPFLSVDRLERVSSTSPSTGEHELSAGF
Source text: To evaluate the CCR1 affinity of previously reported (8–9) and new fluorescently labeled pyrrolones (11–12), we developed a NanoBRET-based binding assay (Figures 4A–H and S2A–J). To this end, we used a previously reported CCR1 construct (hereafter referred to as CCR1_Nluc) with a small and bright luciferase variant (nanoluciferase,[52] Nluc), fused to the intracellular C-terminus of CCR1 (Figures 4A and S2A).[47] […] This was expected, given the very low CCR2/CCR1 selectivity of the parental ligands 4 and 5 (Figure 1).[33] For further studies, we selected 12 due to its highest CCR1 affinity.
Cell culture: HEK293T cells were cultured as previously described.8 In brief, HEK293T cells (gift from Chair of Physiology, Prof. Dr. Alzheimer, FAU Erlangen-Nürnberg) were grown on 10 cm culture dishes at 37 °C and 5% CO2. As growth medium, Dulbecco's Modified Eagle Medium (DMEM)/F12 (Invitrogen) supplemented with 10% fetal bovine serum (FBS, Gibco™ Fetal Bovine Serum, qualified, Brazil), L-glutamine (final concentration: 2 mM; from Gibco™ L-glutamine 200 mM, 100X), penicillin (final concentration: 100 units/mL), and streptomycin (final concentration: 100 µg/mL; from Gibco™ Penicillin-Streptomycin 10,000 U/mL) was used. Cells were split every three to four days and regularly confirmed to be free of mycoplasma contamination using the luminescence-based MycoAlert Plus Kit (Lonza).
Transient transfection using polyethylenimine: For transfection, we used a previously published procedure.8 In brief, HEK293T cells were plated onto culture dishes (Ø 10 cm or Ø 15 cm) and grown to a confluence of approximately 50% at 37 °C and 5% CO2. The growth medium was renewed one-hour before transfection. The transfection mix was prepared, as described in the following. Solution A (0.4-2.2% total DNA (1-5.5 µg) in Gibco™ phosphate buffered saline, pH 7.4) and solution B (3% PEI (linear, 25 kDa, from Polysciences) solution prepared from a PEI stock solution (0.4 µg/µL) in PBS without MgCl2 and CaCl2) were mixed one to one, the resulting mixture was vortexed for 5 s and incubated for 30 min at room temperature. The pre-incubated transfection mix was added dropwise to the cells and cell cultivation was continued […]
Membrane preparation: Membranes were prepared as previously reported.8 In brief, membranes from HEK293T cells transiently expressing the respective GPCR were prepared as follows. The medium of the transfected cells was refreshed after 24 h before cells were harvested 48 h post-transfection. […]
Finally, the protein concentration was determined using the Lowry method.9 cDNA constructs: The CCR1-Nluc fusion construct (CCR1_Nluc) in pcDNA3.1 was generated as previously reported1 using the Gibson Assembly10 (New England Biolabs) method. […]

[2] = target: T4, human chemokine receptor CCR1 (Homo sapiens, UniProt P32246); test: Cellular NanoBiT β-arrestin recruitment assay; assay type: cell-based; conditions: n = 3; read-out: EC50, β-arrestin-2 recruitment, CCR1 activation
T4 construct: expressed in transfected cells; host or cells: HEK293T, transient
T4 sequence (P32246 1-355): T3 sequence (P32246 1-355)
Method: as §1, with “CCR1” for “Cellular NanoBiT β-arrestin recruitment assays: Chemokine-induced β-arrestin-2 recruitment to chemokine receptors CCR1”
as §2, §3
27, 28 CCR1 structure was optimized using the Quickprep and structure preparation wizard in MOE 24 using CHARMM27 forcefield. The protein was saved in mol2 format and loaded in GOLD.25, 26 The amino acids defining the IABS were listed in a text file to define the docking cavity. 50 GA runs were performed for docking CCR2-RA-[R] (4-[R]) and SN_12 (43), with the generated solutions clustered based on their RMSD with the threshold set to 0.75 Å using the complete linkage method. Docking runs were performed using ChemScore. Flexibility of amino acids Lys63ICL1, Arg1313.50, Leu2406.36 and Arg3078.49 was taken in consideration in the docking runs, with conformational sampling of their side chains being done by the rotamer libraries implemented in GOLD.25, 26 For the docking studies with our ligand-linker conjugates (Figure S1), molecular ligand structures were geometry optimized as neutral molecules by means of Avogadro (Version 1.2.0)29 using the Universal Force Field (UFF) and the Steepest Decent Algorithm until convergence (ΔE = 0).
CCR113 was used for docking. The compounds were docked by means of AutoDock Vina 1.1.2.30, 31 An exhaustiveness value of 8 and a search space of 22 x 22 x 22 Å³ was applied around the unliganded intracellular allosteric binding site of CCR1. Twenty docking poses were generated for each ligand and inspected manually and according to the docking score.

[3] = target: T4, human chemokine receptor CCR1; test: Cellular NanoBiT miniGi recruitment assay; assay type: cell-based; conditions: n = 3; read-out: EC50, miniGi recruitment, CCR1 activation
Method: Technologies) for 20 min.
Cellular NanoBiT miniGi recruitment assay s: Chemokine-induced Gi recruitment to the chemokine receptor CCR1 was monitored using a nanoluciferase complementation -based assay (NanoBiT, Promega). 20 5 x 10^6 HEK293T cells were plated in 10 cm dishes and cultured for 24 h before transfection with vectors encoding for the human chemokine receptor CCR1 C-terminally fused with SmBiT and miniGi (mG, engineered GTPase domain of Gα subunit) N-terminally fused with LgBiT. 24 h after transfection cells were harvested, distributed into white 96 -well plates (5 × 10^4 cells per well) and incubated for 1 h at 37 °C with compound 23 at concentrations ranging from 10 nM to 100 µM. The endogenous chemokine ligand CCL5 (3 nM, for CCR1) was then added, and luminescence generated upon nanoluciferase complementation in the presence of coelenterazine H was measured with a Mithras LB940 luminometer (Berthold Technologies) for 20 min. […]
as §2, §3, §4

Molecule	EC50 [1] [nM]	Kd (CCR2) [nM]	Kd (CCR1) [µM]	EC50 [2] [nM]	EC50 [3] [nM]
CCL2: endogenous chemokine ligand, CCR2 agonist	7.43	–	–	–	–
CN(C)c1ccc2c(-c3cc(C(=O)NCc4cn(CCCC(=O)C5=C(O)C(=O)N(c6ccc(Cl)cc6F)C5C5CCCCC5)nn4)ccc3C(=O)[O-])c3ccc(=[N+](C)C)cc-3oc2c1 (stereo not shown) [compound 8]	–	2260	11.3 ± 0.8	–	–
CN(C)c1ccc2c(-c3cc(C(=O)NCc4cn(CCCC(=O)C5=C(O)C(=O)N(c6ccc(Br)cc6F)C5C5CCCCC5)nn4)ccc3C(=O)[O-])c3ccc(=[N+](C)C)cc-3oc2c1 (stereo not shown) [compound 9]	–	2270	14.9 ± 2.1	–	–
CCL5: endogenous chemokine ligand, CCR1 agonist	–	–	–	1.01	2.93
